Reference: PubChem BioAssay (NCI)
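Interpolation was linear, between the two tested concentrations surrounding the appropriate level; five concentrations were tested over 48 hours in 96-well plates. Here, GI50 denotes the concentration required for 50% inhibition of growth. TGI denotes the concentration required for complete inhibition of growth.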

What was measured:
Experiment in all cases: inhibition of tumour cell growth, NCI panel, 48 h
[1] = system: 786-0 renal
[2] = system: A498 renal
[3] = system: A549 NSCLC
[4] = system: ACHN renal
[5] = system: CAKI-1 renal
[6] = system: CCRF-CEM leukemia
[7] = system: COLO 205 colon
[8] = system: DLD-1 colon
[9] = system: DMS 114 small cell lung
[10] = system: DMS 273 small cell lung
[11] = system: EKVX NSCLC
[12] = system: HCC-2998 colon
[13] = system: HCT-116 colon
[14] = system: HCT-15 colon
[15] = system: HL-60(TB) leukemia
[16] = system: HOP-18 NSCLC
[17] = system: HOP-92 NSCLC
[18] = system: HT29 colon
[19] = system: IGROV1 ovarian
[20] = system: K-562 leukemia
[21] = system: KM12 colon
[22] = system: KM20L2 colon
[23] = system: LOX IMVI melanoma
[24] = system: LXFL 529 NSCLC
[25] = system: M14 melanoma
[26] = system: M19-MEL melanoma
[27] = system: MALME-3M melanoma
[28] = system: MOLT-4 leukemia
[29] = system: NCI-H226 lung
[30] = system: NCI-H23 lung
[31] = system: NCI-H460 lung
[32] = system: NCI-H522 lung
[33] = system: OVCAR-3 ovarian
[34] = system: OVCAR-4 ovarian
[35] = system: OVCAR-5 ovarian
[36] = system: OVCAR-8 ovarian
[37] = system: RPMI-8226 leukemia
[38] = system: RXF 393 renal
[39] = system: RXF-631 renal
[40] = system: SF-268 CNS
[41] = system: SF-295 CNS
[42] = system: SF-539 CNS
[43] = system: SK-MEL-2 melanoma
[44] = system: SK-MEL-28 melanoma
[45] = system: SK-MEL-5 melanoma
[46] = system: SK-OV-3 ovarian
[47] = system: SN12C renal
[48] = system: SNB-19 CNS
[49] = system: SNB-75 CNS
[50] = system: SNB-78 CNS
[51] = system: SR leukemia
[52] = system: SW-620 colon
[53] = system: TK-10 renal
[54] = system: U251 CNS
[55] = system: UACC-257 melanoma
[56] = system: UACC-62 melanoma
[57] = system: UO-31 renal
[58] = system: XF 498 CNS
[59] = system: DU-145 prostate
[60] = system: HOP-62 NSCLC
[61] = system: HS 578T breast
[62] = system: MCF7 breast
[63] = system: MDA-MB-231 breast
[64] = system: MDA-MB-435
[65] = system: NCI/ADR-RES ovarian
[66] = system: PC-3 prostate
[67] = system: T-47D breast
[68] = system: BT-549 breast
[69] = system: MDA-N

With `CCOc1ccc2nc(NC(=O)c3c/c(=N\NC(=O)C[N+](C)(C)C)c4ccc(O)cc4o3)sc2c1` the TGI [1] was 10.9 µM, the TGI [2] was 28 µM and the TGI [3] was 7.84 µM. It also gave a TGI [4] of 13.8 µM, a TGI [5] of 18.6 µM and a TGI [6] of 5.96 µM. For the same compound, the TGI [7] was 20.7 µM, the TGI [8] was 13.4 µM and the TGI [9] was 4510 nM. The TGI [10] was 28.7 µM, the TGI [11] was 11.9 µM and the TGI [12] was 20.8 µM. For the same compound, the TGI [13] was greater than 29.8 µM, the TGI [14] was 20 µM and the TGI [15] was 3.83 µM. The TGI [16] was 5.05 µM, the TGI [17] was 6.99 µM and the TGI [18] was 13 µM. The TGI [19] was 8.64 µM, the TGI [20] was 6.08 µM and the TGI [21] was 19.2 µM. It also gave a TGI [22] of 10 µM, a TGI [23] of 5.73 µM and a TGI [24] of 4.45 µM. For the same compound, the TGI [25] was 3.1 µM, the TGI [26] was 501 nM and the TGI [27] was 2560 nM. For the same compound, the TGI [28] was 5.74 µM, the TGI [29] was 12 µM and the TGI [30] was 7.13 µM. For the same compound, the TGI [31] was 13.4 µM, the TGI [32] was 4.14 µM and the TGI [33] was 402 nM. It also gave a TGI [34] of 5.96 µM, a TGI [35] of 7.3 µM and a TGI [36] of 7.76 µM. It also gave a TGI [37] of 8.31 µM, a TGI [38] of 14.4 µM and a TGI [39] of 26.8 µM. It also gave a TGI [40] of 11.6 µM, a TGI [41] of 11.1 µM and a TGI [42] of 11 µM. For the same compound, the TGI [43] was 6.22 µM, the TGI [44] was 13 µM and the TGI [45] was 1850 nM. The TGI [46] was 25.2 µM, the TGI [47] was 14.5 µM and the TGI [48] was 17.8 µM. The TGI [49] was 3.53 µM, the TGI [50] was 15.5 µM and the TGI [51] was 17.3 µM. It also gave a TGI [52] of 5.28 µM, a TGI [53] of 36.5 µM and a TGI [54] of 10.5 µM. The TGI [55] was 3.16 µM, the TGI [56] was 3.21 µM and the TGI [57] was 24.7 µM. For the same compound, the TGI [58] was 6.14 µM.
`C[C@]12CCC3[C@@H](CC[C@@H]4c5nonc5CC[C@]34C)C1CCC(=O)N2` (stereo not given in full) was tested, and the TGI [1] was greater than 100 µM, the GI50 [2] was greater than 88.8 µM and the TGI [2] was greater than 100 µM. The TGI [3] was greater than 100 µM, the TGI [4] was greater than 100 µM and the TGI [5] was greater than 100 µM. The TGI [6] was greater than 100 µM, the TGI [7] was greater than 100 µM and the TGI [10] was greater than 100 µM. For the same compound, the GI50 [59] was greater than 100 µM, the TGI [59] was greater than 100000 nM and the TGI [11] was greater than 100 µM. For the same compound, the GI50 [12] was greater than 100 µM, the TGI [12] was greater than 100 µM and the TGI [13] was greater than 100 µM. For the same compound, the TGI [14] was greater than 100 µM, the TGI [15] was greater than 100 µM and the TGI [16] was greater than 100 µM. It also gave a TGI [60] greater than 100000 nM, a GI50 [17] of 40.4 µM and a TGI [17] greater than 95.1 µM. The GI50 [61] was greater than 100 µM, the TGI [61] was greater than 100000 nM and the TGI [18] was greater than 100 µM. It also gave a TGI [19] greater than 100 µM, a TGI [20] greater than 100 µM and a TGI [21] greater than 100 µM. The TGI [22] was greater than 100 µM, the TGI [23] was greater than 100 µM and the TGI [24] was greater than 100 µM. The TGI [25] was greater than 100 µM, the TGI [26] was greater than 100000 nM and the TGI [27] was greater than 100000 nM. For the same compound, the GI50 [62] was greater than 100 µM, the TGI [62] was greater than 100000 nM and the GI50 [63] was greater than 100 µM. It also gave a TGI [63] greater than 100 µM, a GI50 [64] greater than 100 µM and a TGI [64] greater than 100000 nM. It also gave a GI50 [28] greater than 59.7 µM, a TGI [28] greater than 100 µM and a TGI [29] greater than 100 µM. It also gave a TGI [30] greater than 100 µM, a TGI [31] greater than 100 µM and a TGI [32] greater than 100 µM. It also gave a GI50 [65] greater than 100 µM, a TGI [65] greater than 100000 nM and a TGI [33] greater than 100000 nM. For the same compound, the TGI [34] was greater than 100 µM, the TGI [35] was greater than 100 µM and the TGI [36] was greater than 100 µM. The GI50 [66] was 68.3 µM, the TGI [66] was greater than 100 µM and the TGI [37] was greater than 100 µM. It also gave a TGI [38] greater than 100 µM, a TGI [39] greater than 100 µM and a TGI [40] greater than 100 µM. The TGI [41] was greater than 100 µM, the TGI [42] was greater than 100 µM and the TGI [43] was greater than 100 µM. The TGI [44] was greater than 100 µM, the TGI [45] was greater than 100000 nM and the TGI [46] was greater than 100 µM. For the same compound, the TGI [47] was greater than 100 µM, the TGI [48] was greater than 100 µM and the GI50 [49] was 35.2 µM. It also gave a TGI [49] greater than 100 µM, a TGI [50] greater than 100 µM and a GI50 [51] greater than 100 µM. For the same compound, the TGI [51] was greater than 100 µM, the TGI [52] was greater than 100 µM and the GI50 [67] was greater than 100 µM. The TGI [67] was greater than 100 µM, the TGI [53] was greater than 100 µM and the TGI [54] was greater than 100 µM. The TGI [55] was greater than 100 µM, the GI50 [56] was greater than 84 µM and the TGI [56] was greater than 100 µM. The TGI [57] was greater than 100 µM and the TGI [58] was greater than 100 µM.
`CC1=C(N2CC2)C(=O)c2nc3n(c2C1=O)CCC3OC(=O)CCl` (stereo not given) was tested, and the TGI [1] was 0.191 µM, the TGI [2] was 0.13 µM and the TGI [3] was 0.169 µM. It also gave a TGI [4] of 0.216 µM, a TGI [68] of 44.4 nM and a TGI [5] of 0.174 µM. For the same compound, the TGI [6] was 3.65 µM, the TGI [7] was 0.444 µM and the TGI [8] was 1.58 µM. It also gave a TGI [9] of 512 nM, a TGI [10] of 0.128 µM and a TGI [59] of 190 nM. The TGI [11] was 0.551 µM, the TGI [12] was 0.136 µM and the TGI [13] was 0.383 µM. It also gave a TGI [14] of 0.0825 µM, a TGI [15] of 3.18 µM and a TGI [16] of 0.178 µM. It also gave a TGI [60] of 145 nM, a TGI [17] of 8.04 µM and a TGI [61] of 78.4 nM. It also gave a TGI [18] of 0.337 µM, a TGI [19] of 0.928 µM and a TGI [20] of 1.61 µM. For the same compound, the TGI [21] was 0.0977 µM, the TGI [22] was 0.547 µM and the TGI [23] was 0.117 µM. The TGI [24] was 0.227 µM, the TGI [25] was 0.0814 µM and the TGI [26] was 266 nM. The TGI [27] was 103 nM, the TGI [62] was 46.8 nM and the TGI [63] was greater than 100 µM. It also gave a TGI [64] of 112 nM, a TGI [69] of 56 nM and a TGI [28] of 5.89 µM. The TGI [29] was 0.17 µM, the TGI [30] was 0.0825 µM and the TGI [31] was 0.123 µM. The TGI [32] was 0.0617 µM, the TGI [65] was 86.2 nM and the TGI [33] was 520 nM. For the same compound, the TGI [34] was 0.218 µM, the TGI [35] was 0.263 µM and the TGI [36] was 0.165 µM. The TGI [37] was 1.7 µM, the TGI [38] was 0.069 µM and the TGI [40] was 0.202 µM. For the same compound, the TGI [41] was 0.204 µM, the TGI [42] was 0.152 µM and the TGI [43] was 0.271 µM. It also gave a TGI [44] of 0.141 µM, a TGI [45] of 89.3 nM and a TGI [46] of 0.29 µM. It also gave a TGI [47] of 0.267 µM, a TGI [48] of 0.684 µM and a TGI [49] of 0.05 µM. The TGI [50] was 0.6 µM, the TGI [51] was 13.6 µM and the TGI [52] was 0.191 µM. The TGI [67] was 3.88 µM, the TGI [53] was 0.639 µM and the TGI [54] was 0.237 µM. The TGI [55] was 0.235 µM, the TGI [56] was 0.0696 µM and the TGI [57] was 0.0944 µM. For the same compound, the TGI [58] was 0.0954 µM.
